From patent US20230131630A1, “METHOD OF SCREENING FOR A SUBSTANCE THAT ACTS ON A CELL MASS” (LSI MEDIENCE CORPORATION, priority 2017, published 2023)

Assays:
[1] = tested on: PDX tumor of pancreatic cancer (1); test: In vivo anticancer drug sensitivity test, PDX tumor grafted subcutaneously in immunodeficient mice; conditions: super SCID mouse, subcutaneous graft; gemcitabine 60 mg/kg/time twice weekly for 4 weeks; FIG. 8 left
Experimental: An in vivo anticancer drug sensitivity test was performed by the following procedures with reference to a known method. A PDX tumor of pancreatic cancer (1), which was subcutaneously grown in an immunodeficient mouse [super SCID mouse (strain name: C3H/HeJ/NOs-scid; LPS-nonresponder)], was aseptically extracted in a safety cabinet, and every necrotic area of the tumor was removed with surgical scissors. Subsequently, graft tumor fragments each having a size of about 2 to 3 mm square were prepared and subcutaneously grafted in at least 12 immunodeficient mice. When the average tumor volume reached about 200 mm^3, the mice were grouped by tumor volume and assigned to a control group and a gemcitabine administration group (N = 6: 6 mice each under the same conditions). Gemcitabine (60 mg/kg/time) was administered at a dosing frequency of twice weekly for 4 weeks. The tumor diameter was measured at a frequency of twice weekly and the tumor volume was calculated, thereby creating a tumor proliferation curve.

[2] = tested on: cell mass of primary cancer cells from PDX tumor of pancreatic cancer (1); test: In vitro anticancer drug sensitivity test, ATP assay (CellTiter-Glo 3D) on three-dimensionally cultured cell mass; format: cell-based, human; conditions: fresh tumor; gemcitabine 0.001-10 µmol/L from Day 7, ATP assay on Day 14; FIG. 8 right
Experimental: A half of medium exchange was performed with a culture medium supplemented with gemcitabine on Day 7. A half of medium exchange was performed with a culture medium supplemented with gemcitabine which was adjusted to maintain the final concentration on Days 10 and 12. On Day 14, ATP assay was performed, and the proportion based on the result of each gemcitabine concentration group was calculated when the result at a gemcitabine concentration of 0 µmol / L was defined as a cell viability of 100%, thereby creating a cell viability curve. An in vitro anticancer drug sensitivity test was performed by the following procedures. After dispersion treatment, the necessary amount of cells counted were collected in a 15-mL tube, and the supernatant was removed by centrifugation at 300 × g for 5 min. Thereafter, a cell suspension was prepared so that the cell count was 5 × 10^4 cells/mL using a medium prepared by adding Corning Matrigel GFR (Corning Incorporated) to StemPro hESC SFM (Thermo Fisher Scientific K.K.) to yield a final concentration of 2% v/v. […] The seeded cell count was 1 × 10^4 cells/200 µL/well, and the day of seeding was determined to be Day 0. […] The proportion of the result of each gemcitabine concentration group was calculated when the result at a gemcitabine concentration of 0 µmol / L was defined as a cell viability of 100%, thereby creating a cell viability curve.

[3] = tested on: cell mass originating from the once-frozen PDX tumor of pancreatic cancer (1); test: In vitro gemcitabine sensitivity test, ATP assay on cell mass from once-frozen tumor tissue; format: cell-based, human; conditions: gemcitabine 0.001-10 µmol/L from Day 3, ATP assay on Day 7, FIG. 9
Experimental: The PDX tumor of pancreatic cancer (1) (procured from National Institutes of Biomedical Innovation, Health and Nutrition) was extracted in accordance with Example 1. The tumor was immersed in CELLBANKER 1 (Takara Bio Inc.) and frozen by a Program Deep Freezer (Nepa Gene Co., Ltd.), thereby preparing a frozen tumor. The frozen tumor was thawed in a warm bath at 37° C. and washed with HBSS (Thermo Fisher Scientific K.K.), and then, primary cancer cells were prepared in accordance with Example 1. After dispersion treatment, the necessary amount of cells counted were collected in a 15-mL tube, and the supernatant was removed by centrifugation at 300 × g for 5 min. […] The seeded cell count was 1 × 10^4 cells/200 µL/well, and the day of seeding was determined to be Day 0. […] The proportion of the result of each measurement day with respect to the result of Day 0 was calculated, and a proliferation curve was created. The proportion based on the result of each gemcitabine concentration group was calculated when the result at a gemcitabine concentration of 0 µmol / L was defined as a cell viability of 100%, thereby creating a cell viability curve.

[4] = tested on: reproduced cell mass originating from the PDX tumor of pancreatic cancer (1); test: In vitro gemcitabine sensitivity test, ATP assay on subcultured (reproduced) cell mass; format: cell-based, human; conditions: fresh or frozen tumor-derived, gemcitabine 0.001-10 µmol/L from Day 3, ATP assay on Day 7, FIGS. 10-1, 10-2
Experimental: A fresh tumor-derived cell mass and a frozen tumor-derived cell mass were obtained in accordance with Examples 1 and 10, respectively, using a PDX tumor of pancreatic cancer (1) (procured from National Institutes of Biomedical Innovation, Health and Nutrition). Each cell mass was collected in a 50-mL tube, and the supernatant was removed by centrifugation at 300 × g for 5 min. Thereafter, the cell mass was suspended in TrypLE (Thermo Fisher Scientific K.K.) and enzymatically treated in a warm bath at 37° C. The reaction was weakened by adding 10 times the amount of HBSS (Thermo Fisher Scientific K.K.) to the reaction solution. The undispersed residues were removed by passing the mixture through a 100-µm cell strainer. […]
The necessary amount of cells were collected in a 15-mL tube, and the supernatant was removed by centrifugation at 300 × g for 5 min. […] The seeded cell count was 1 × 10^4 cells/200 µL/well (fresh tumor-derived) or 4 × 10^3 cells/200 µL/well (frozen tumor-derived), and the day of seeding was determined to be Day 0. […] The ratio of the result of each measurement day with respect to the result of Day 0 was calculated, and a growth curve was created. The proportion based on the result of each gemcitabine concentration group was calculated when the result at a gemcitabine concentration of 0 µmol/L was defined as a cell viability of 100%, thereby creating a cell viability curve. […]

Nc1ccn([C@@H]2O[C@H](CO)[C@@H](O)C2(F)F)c(=O)n1 [Gemcitabine, gemcitabine]
inhibited proliferation: proliferation of the PDX tumor (tumor volume, tumor proliferation curve) [1] | proliferation / cell viability (ATP assay) of the cell mass [2] | proliferation / cell viability (ATP assay) of the cell mass [3] | proliferation / cell viability (ATP assay) of the reproduced cell mass [4]
